Laboratory results as given in PMC8897147 (Acta Pharmaceutica Sinica. B, 2021).

Assays:
Conditions in all cases: COS-7
[1] = target: CLR (Homo sapiens, UniProt Q16602); assay: cAMP accumulation
[2] = target: T1, CLR/RAMP3 (Homo sapiens, UniProt O60896+Q16602); assay: β-Arrestin1 recruitment
[3] = target: T1, CLR/RAMP3; assay: β-Arrestin2 recruitment

T1 sequence (Q16602 23-461): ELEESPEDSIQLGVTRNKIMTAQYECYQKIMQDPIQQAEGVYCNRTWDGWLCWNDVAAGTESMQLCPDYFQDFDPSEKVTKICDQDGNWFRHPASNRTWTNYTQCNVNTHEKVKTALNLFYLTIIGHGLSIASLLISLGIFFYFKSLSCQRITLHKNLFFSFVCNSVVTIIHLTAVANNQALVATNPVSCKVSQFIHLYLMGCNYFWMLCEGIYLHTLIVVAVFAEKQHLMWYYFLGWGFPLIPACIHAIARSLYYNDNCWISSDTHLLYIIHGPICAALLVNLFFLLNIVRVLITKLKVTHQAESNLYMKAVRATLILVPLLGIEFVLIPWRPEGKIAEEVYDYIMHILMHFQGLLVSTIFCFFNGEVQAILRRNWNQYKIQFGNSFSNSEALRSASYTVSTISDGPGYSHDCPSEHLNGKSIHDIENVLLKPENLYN
T1 sequence (O60896 24-148): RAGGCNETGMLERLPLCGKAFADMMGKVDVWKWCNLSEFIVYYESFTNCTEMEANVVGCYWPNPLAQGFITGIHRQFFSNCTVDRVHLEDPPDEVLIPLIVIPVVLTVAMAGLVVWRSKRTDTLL
Chain of CLR (Q16602 23-461): as the sequence (Q16602 23-461) above

Emax [1]: 46.3 ± 2.9%
Emax [2]: 17.9 ± 11.7%
Emax [3]: 58.4 ± 10.9%
SMILES: CC[C@H](C)[C@H](NC(=O)[C@H](CCC(N)=O)NC(=O)[C@H](Cc1c[nH]cn1)NC(=O)[C@H](C)NC(=O)[C@H](CC(C)C)NC(=O)[C@H](CCCCN)NC(=O)[C@H](CCC(N)=O)NC(=O)[C@@H](NC(=O)[C@@H](NC(=O)[C@@H]1CSSC[C@H](NC(=O)CNC(=O)[C@H](Cc2ccccc2)NC(=O)[C@H](CO)NC(=O)[C@H](CCCNC(=N)N)NC(=O)[C@H](CC(C)C)NC(=O)CNC(=O)[C@H](CCC(N)=O)NC(=O)[C@H](Cc2ccccc2)NC(=O)[C@H](CC(N)=O)NC(=O)[C@H](CC(N)=O)NC(=O)[C@H](CCSC)NC(=O)[C@H](CO)NC(=O)[C@H](CCC(N)=O)NC(=O)[C@H](CCCNC(=N)N)NC(=O)[C@@H](N)Cc2ccc(O)cc2)C(=O)N[C@@H](CCCNC(=N)N)C(=O)N[C@@H](Cc2ccccc2)C(=O)NCC(=O)N[C@@H]([C@@H](C)O)C(=O)N1)[C@@H](C)O)C(C)C)C(=O)N[C@@H](Cc1ccc(O)cc1)C(=O)N[C@@H](CCC(N)=O)C(=O)N[C@@H](Cc1ccccc1)C(=O)N[C@H](C(=O)N[C@@H](CC(=O)O)C(=O)N[C@@H](CCCCN)C(=O)N[C@@H](CC(=O)O)C(=O)N[C@@H](CCCCN)C(=O)N[C@@H](CC(=O)O)C(=O)N[C@@H](CC(N)=O)C(=O)N[C@H](C(=O)N[C@@H](C)C(=O)N1CCC[C@H]1C(=O)N[C@@H](CCCNC(=N)N)C(=O)N[C@@H](CO)C(=O)N[C@@H](CCCCN)C(=O)N[C@H](C(=O)N[C@@H](CO)C(=O)N1CCC[C@H]1C(=O)N[C@@H](CCC(N)=O)C(=O)NCC(=O)N[C@@H](Cc1ccc(O)cc1)C(N)=O)[C@@H](C)CC)C(C)C)[C@@H](C)O [Adrenomedullin, adrenomedullin]
